According to patent publication US5072032A, “Preparation and use of thiophosphonates and thio-analogues of phosphonoformic acid” (priority 1989, dated 1991):

Molecular target: T1, HIV-1 reverse transcriptase (Human immunodeficiency virus type 1 group M subtype B, UniProt P04585)
T1 construct: made in house
Experiment: HIV-1 reverse transcriptase assay (viral polymerase inhibition)
Format: biochemical
Procedure: HIV reverse transcriptase was purified by antibody affinity column chromatography as descrbed (Starnes. M. C. and Y. C. Cheng (1989) J. Biol. Chem. 264:7073-7077). The purified enzymes were dialyzed against and stored in 50 mM Tris-HCl (pH 7.5) containing 1 mM each of DTT, EDTA and PMSF plus 30% glycerol.
Standard assays were run at 37° C. and contained: 50 mM Tris, pH b 8.0, 0.5 mM DTT, 8 mM MgCl2, 100 μg/mL BSA, 150 μg/mL gapped calf thymus DNA, 100 μM each dATP, dCTP, dGTP, 10 .parallel.M [^3 H]-dTTP, and 1-5 .parallel.L enzyme in a final volume of 50 .parallel.L. Modified assays for pH dependence inhibition studies with PFA (1) and α--oxo phosphonates (4 and 5) contained 50 mM Hepes, pH 8.2-6.5, 8 mM MgCl2, 100 mM KCl, 100 μg/ml BSA, 0.5 A260 units/ml of poly(rA).(dT)10, 100 μM [^3 H]dTTP, and 1.5 .parallel.L enzyme in a final volume of 50 μL. Samples were processed as described above.

| SMILES | IC50 |
| --- | --- |
| O=C(O)P(=O)(O)O [PFA, phosphonoformic acid] | 700 nM |
| O=C(O)P(O)(O)=S [TPFA, thiophosphonoformic acid] | 1000 nM |
